Data from US12458614B2, “Therapeutic agents for improved mobility and cognitive function and for treating neurodegenerative diseases and lysosomal storage disorders” (priority 2017, dated 2025).
Where “and” joins values, the source holds several entries; their conditions need not be identical. Identical values can stand only once.

Columns and labels:
[1] = system: patient with corticobasal syndrome; test: Case study, corticobasal syndrome; type: in vivo, human
Protocol: Gait analysis was performed before treatment commenced.

[2] = system: Mucopolysaccharidosis Type IIIB (MPS IIIB) patient fibroblasts; test: Lysosomal volume via LysoTracker; type: cell-based, human; settings: 1 mM, 6 days
[3] = system: person with postural imbalance and cognitive decline; test: Case study Example 27; type: in vivo, human
Protocol: The patient was examined clinically by means of the following clinical assessments: maximal distance to walk; timed Up and Go test; Scale for the Assessment and Rating of Ataxia (SARA). The patient was also examined by means of posturography after 1 month of the therapy with Tanganil® 500 mg (2 g upon waking, 1.5 g prior to lunch and 1.5 g prior to the evening meal). Medication was taken 30 minutes prior to the meal, or at least 2 hours after the meal. During treatment with Tanganil® (2 g upon waking, 1.5 g prior to lunch and 1.5 g prior to the evening meal) for 1-month, the following assessments were made: […]

[4] = system: patient with Lewy Body dementia; test: Case study, Lewy Body dementia; type: in vivo, human; settings: Lewy Body dementia patient
Protocol: The patient started taking acetyl-leucine (3 g/day for one week; 5 g/day thereafter) and was evaluated after four weeks. […] Medication was reduced to 3 g/day, and the patient was instructed to stop medication about two weeks later.

[5] = system: fibroblasts from NPC patients; test: Relative lysosomal volume via LysoTracker; type: cell-based, human; settings: 1 mM
Protocol: A fibroblast cell line from an NPC patient was treated for 3 days with N-acetyl-DL-leucine (1 mM) and relative lysosomal volume was quantified via LysoTracker, a fluorescent dye that accumulates in acidic organelles. Increased LysoTracker fluorescence is indicative of an increase in lysosomal size and/or number, and is a hallmark of NPC cells.

[6] = system: patients with multiple system atrophy Parkinson type (MSA-P); test: Case studies, multiple system atrophy Parkinson type; type: in vivo, human; settings: MSA-P Patient 3, after one month
Text: Medication was stopped. […] The patient evaluated after one month on acetyl-DL-leucine. […] Episodes of mental confusion completely disappeared. The patient's cognitive structure seemed much clearer and straighter. […] The patient's spouse supported continuing the medication.

[7] = system: patient with progressive gait disorder; test: Case study Example 26, quantitative gait analysis; type: in vivo, human
[8] = system: subjects with no apparent dysfunction in cognitive ability or movement/balance; test: Psychomotor Vigilance Task (Mind Metrics App); type: in vivo, human
Text: For example, the Psychomotor Vigilance Task (PVT) is a sustained-attention, reaction-timed task that measures the speed with which subjects respond to a visual stimulus. The subject monitors a screen and presses the screen as quickly as possible upon the appearance of visual stimuli. The visual stimuli will then disappear and reappear (at irregular time intervals) e.g., 10 times over the course of the test, with the subject touching the screen as quickly as possible upon each reappearance. Test performance is quantified from an average of the e.g. 10 reaction times. The subject's reaction speed and alertness was assessed using the Mind Metrics App (Psychomotor Vigilance Task, 10 trials per test). The Psychomotor Vigilance Task (PVT) is a sustained-attention, reaction-timed task that measures the speed with which subjects respond to a visual stimulus. The subject is required to monitor a screen and press the screen as quickly as possible upon the appearance of visual stimuli. The visual stimuli will then disappear and reappear (at irregular time intervals) 10 times over the course of the test, with the subject touching the screen as quickly as possible upon each reappearance. Test performance is quantified from an average of the 10 reaction times. […] The subject was assessed for 2 weeks prior to taking acetyl-leucine, which constitutes the baseline period. […] Medication was taken at least 2 hours after and 30 minutes prior to eating. The 5 g daily dose was taken in 3 separate doses throughout the day—2 g upon waking, 1.5 g prior to lunch and 1.5 g prior to the evening meal. Daily treatments and assessments continued for 4 weeks. […]

[9] = one line per subject (age/gender 66 M, 29 M, 55 F, 50 M, 53 M, 48 F), listed as acetyl-leucine

**Q.** Which Frequency of falls ([1]; after 20 days) does the source give for `CC(=O)NC(CC(C)C)C(=O)O` (racemic) [acetyl-DL-leucine] here?
**A.** Its Frequency of falls is “significant reduction in the frequency of falls”.

**Q.** And the “Gait analysis parameters (summary)” value ([1]; after 20 days)?
**A.** Its value is “objective improvement in gait analysis parameters”.

**Q.** What about the Dizziness symptoms ([1]; after 20 days, 3 g then 5 g per day) of the same molecule?
**A.** Its Dizziness symptoms is “improvement of dizziness symptoms”.

**Q.** What about the Dizziness after suspension ([1]; two days after suspension of treatment) of the same molecule?
**A.** Its Dizziness after suspension is “increase of dizziness symptoms”.

**Q.** And the “LysoTracker fluorescence vs untreated disease fibroblasts” value [2]?
**A.** Its value is “statistically significant reduction in LysoTracker fluorescence toward control level”.

**Q.** And the Subjective measurements ([3]; 1 month on medication)?
**A.** Its Subjective measurements is “more energy, was more agile and interactive”.

**Q.** And the SARA ([3]; 1 month on medication, baseline 6.5/40)?
**A.** Its SARA is 2/40.

**Q.** And the “Mean timed 8-meter-walking test” value ([3]; 1 month on medication, baseline 6.5 sec)?
**A.** The value was 4.4 s.

**Q.** And the Stance up-and-go test ([3]; 1 month on medication, baseline 25.4 sec)?
**A.** Its Stance up-and-go test is 21.2 s.

**Q.** What about the “Maximal distance to walk” value ([3]; 1 month, 2 g/1.5 g/1.5 g per day, baseline 1 km) of the same molecule?
**A.** The value was 1.5 km.

**Q.** And the Side effects ([3]; 2 g/1.5 g/1.5 g per day dosage regimen)?
**A.** Its Side effects is “Sleepiness”.

**Q.** What about the Frequency of falls ([3]; lower dosage 1 g/1 g/1 g for over 4 months) of the same molecule?
**A.** The Frequency of falls was 0-1 /month.

**Q.** And the Falls ([3]; therapy period of 1 month)?
**A.** Its Falls is “did not record any falls”.

**Q.** And the “Patient report on treatment” value ([4]; after four weeks, 3 g/day then 5 g/day)?
**A.** Its value is “increased fatigue and a deterioration of balance and speech”.

**Q.** And the “Patient report on decreased dose” value ([4]; reduced to 3 g/day)?
**A.** The value was “did not report improvement of symptomatology with the decreased dose”.

**Q.** What about the “LysoTracker fluorescence (lysosomal volume)” value ([5]; NPC patient of mild clinical severity) of the same molecule?
**A.** Its value is “significant decrease in LysoTracker fluorescence”.

**Q.** And the “LysoTracker fluorescence (lysosomal volume)” value ([5]; additional NPC patients of variable clinical severity, 72 hours)?
**A.** Its value is “findings were replicated”.

**Q.** What about the “Cognitive function (reported by wife)” value [6] of the same molecule?
**A.** The value was “significant improvement of cognitive function”.

**Q.** And the Gait function [6]?
**A.** Its Gait function is “no improvement of gait function”.

**Q.** What about the “Gait (patient and spouse report)” value ([7]; 3 gram per day for two weeks) of the same molecule?
**A.** Its value is “considerable improvement of gait”.

**Q.** What about the “Functioning and quality of living (spouse report)” value ([7]; Day 42, 3 gram per day restarted) of the same molecule?
**A.** Its value is “dramatic improvement”.

**Q.** What about the Self-chosen gait velocity ([7]; Day 42, from 55 cm/sec) of the same molecule?
**A.** Its Self-chosen gait velocity is 62 cm/s.

**Q.** And the Maximal gait velocity ([7]; Day 42, from 84 cm/sec)?
**A.** Its Maximal gait velocity is 130 cm/s.

**Q.** And the “Symptoms after medication was stopped” value ([7]; in vivo)?
**A.** Its value is “worsening of symptoms”.

**Q.** And the “% change in Reaction Time” value ([8]; on-treatment vs baseline, one line per subject (66 M, 29 M, 55 F, 50 M, 53 M, 48 F), listed as acetyl-leucine)?
**A.** Its value is −3.593% and 1.408% and 8.13% and −10.24% and −7.474% and −30.86%.

**Q.** What about the “Details on Subjective Improvement” value ([8]; one line per subject) of the same molecule?
**A.** Its value is “Improvement in general”.

**Q.** And the “Statistically significant improvement in PVT performance on treatment?” value [8, 9]?
**A.** The value was “Yes (4×) and No (2×)”.

**Q.** What about the “Subjective Improvement on treatment?” value [8, 9] of the same molecule?
**A.** Its value is “Yes (5×) and No”.

**Q.** And the Adverse effects ([8]; person five)?
**A.** The Adverse effects was “None reported”.

**Q.** What about the Subjective measurements ([8]; person five) of the same molecule?
**A.** The Subjective measurements was “feeling less tired than usual”.

**Q.** What about the Adverse effects ([8]; person four) of the same molecule?
**A.** Its Adverse effects is “None reported”.

**Q.** What about the Subjective measurements ([8]; person four) of the same molecule?
**A.** The Subjective measurements was “improvement in general alertness”.

**Q.** What about the Adverse effects ([8]; person one) of the same molecule?
**A.** The Adverse effects was “None reported”.

**Q.** And the Subjective measurements ([8]; person one)?
**A.** The Subjective measurements was “shortening of the time required to go from ‘asleep’ to ‘fully awake’”.

**Q.** And the Adverse effects ([8]; person six)?
**A.** Its Adverse effects is “None reported”.

**Q.** And the Subjective measurements ([8]; person six)?
**A.** Its Subjective measurements is “no difference between on and off medication”.

**Q.** What about the Subjective measurements ([8]; person three) of the same molecule?
**A.** Its Subjective measurements is “improvement in general alertness”.

**Q.** And the Adverse events ([8]; person three, first week on medication, one occasion)?
**A.** The Adverse events was “mild dizziness/lightheadedness”.

**Q.** And the Adverse effects ([8]; person two)?
**A.** The Adverse effects was “None reported”.

**Q.** What about the Subjective measurements ([8]; person two) of the same molecule?
**A.** The Subjective measurements was “improvement in general alertness”.
